The numbers were not newly measured in PubChem BioAssay AID1259409 (Chemical Carcinogenesis Research Information System (CCRIS), 2018), which cites them from elsewhere.

This data set concerns rodent chemically induced tumor inhibition, incidence and multiplicity. In words: CCRIS tumor inhibitor studies.

For the compound `COc1cc(/C=C/C(=O)CC(=O)/C=C/c2ccc(O)c(OC)c2)ccc1O`, the “tumour outcome (control, treated, inhibition, significance)” value (Carcinogen: 1,2-DIMETHYLHYDRAZINE [540-73-8], Species: RAT, Strain/Sex: WISTAR, Target Tissue: Type of Lesion: COLON, Dose [Carcinogen]: 20 MG/KG) is listed as 81.3%, 61%, 25%, p<0.05; the “tumour outcome (control, treated, inhibition, significance)” value (Carcinogen: 2,2'-DIHYDROXY-DI-N-PROPYLNITROSAMINE, 53609-64-6, N-ETHYL-N-HYDROXYETHYLNITROSAMINE, 13147-25-6, 3,2'-DIMETHYL-1,4-, Carcinogen: 2,2'-DIHYDROXY-DI-N-PROPYLNITROSAMINE, 53609-64-6, N-ETHYL-N-HYDROXYETHYLNITROSAMINE, 13147-25-6, 3,2'-DIMETHYL-1,4-, Dose [Inhibitor]: 0, 1% IN DIET FOR 4 WK BEGINNING 1 D PRIOR TO FIRST CARCINOGEN DOSE (STUDY DURATION: 36 WK), Route [Inhibitor]: ORAL, Species: RAT, Strain/Sex: F344/MALE, Target Tissue: Type of Lesion: KIDNEY: ADENOMA, Dose [Carcinogen]: 1000 MG/KG BW DHPN TWICE, 1500 MG/KG EHEN TWICE, 75 MG/KG BW DMAB 3 TIMES, SEQUENTIALLY OVER 3 WK, Promoter: NONE USED) is on record as 6/10 (60%), 6/13 (46%), 23%, not significant; the “tumour outcome (control, treated, inhibition, significance)” value (Carcinogen: 2,2'-DIHYDROXY-DI-N-PROPYLNITROSAMINE, 53609-64-6, N-ETHYL-N-HYDROXYETHYLNITROSAMINE, 13147-25-6, 3,2'-DIMETHYL-1,4-, Carcinogen: 2,2'-DIHYDROXY-DI-N-PROPYLNITROSAMINE, 53609-64-6, N-ETHYL-N-HYDROXYETHYLNITROSAMINE, 13147-25-6, 3,2'-DIMETHYL-1,4-, Dose [Inhibitor]: 0, 1% IN DIET FOR 4 WK BEGINNING 1 D PRIOR TO FIRST CARCINOGEN DOSE (STUDY DURATION: 36 WK), Route [Inhibitor]: ORAL, Species: RAT, Strain/Sex: F344/MALE, Target Tissue: Type of Lesion: LUNG: ADENOMA, Dose [Carcinogen]: 1000 MG/KG BW DHPN TWICE, 1500 MG/KG EHEN TWICE, 75 MG/KG BW DMAB 3 TIMES, SEQUENTIALLY OVER 3 WK, Promoter: NONE USED) is given as 5/10 (50%), 10/13 (77%), -54%, not significant; the “tumour outcome (control, treated, inhibition, significance)” value (Carcinogen: 4-NITROQUINOLINE-1-OXIDE, 56-57-5, Dose [Inhibitor]: 0, 500 PPM IN DIET FOR 10 WK BEGINNING 1 WK PRIOR TO CARCINOGEN TREATMENT (STUDY DURATION: 32 WK), Route [Inhibitor]: ORAL, Species: RAT, Strain/Sex: F344/MALE, Target Tissue: Type of Lesion: TONGUE: CARCINOMA, Dose [Carcinogen]: 20 PPM IN DRINKING WATER FOR 8 WK, Promoter: NONE USED) is 13/24 (54%), 1/19 (5%), 91%, p<0.05; the “tumour outcome (control, treated, inhibition, significance)” value (Carcinogen: 4-NITROQUINOLINE-1-OXIDE, 56-57-5, Dose [Inhibitor]: 0, 500 PPM IN DIET FOR 10 WK BEGINNING 1 WK PRIOR TO CARCINOGEN TREATMENT (STUDY DURATION: 32 WK), Route [Inhibitor]: ORAL, Species: RAT, Strain/Sex: F344/MALE, Target Tissue: Type of Lesion: TONGUE: PAPILLOMA, Dose [Carcinogen]: 20 PPM IN DRINKING WATER FOR 8 WK, Promoter: NONE USED) is reported as 4/24 (17%), 0/19 (0%), 100%, not significant; the “tumour outcome (control, treated, inhibition, significance)” value (Carcinogen: 4-NITROQUINOLINE-1-OXIDE, 56-57-5, Dose [Inhibitor]: 0, 500 PPM IN DIET FOR 22 WK BEGINNING 1 WK POST CARCINOGEN TREATMENT (STUDY DURATION: 32 WK), Route [Inhibitor]: ORAL, Species: RAT, Strain/Sex: F344/MALE, Target Tissue: Type of Lesion: TONGUE: CARCINOMA, Dose [Carcinogen]: 20 PPM IN DRINKING WATER FOR 8 WK, Promoter: NONE USED) is recorded as 13/24 (54%), 3/20 (15%), 72%, p<0.05. The “tumour outcome (control, treated, inhibition, significance)” value by setting is: (Carcinogen: 4-NITROQUINOLINE-1-OXIDE, 56-57-5, Dose [Inhibitor]: 0, 500 PPM IN DIET FOR 22 WK BEGINNING 1 WK POST CARCINOGEN TREATMENT (STUDY DURATION: 32 WK), Route [Inhibitor]: ORAL, Species: RAT, Strain/Sex: F344/MALE, Target Tissue: Type of Lesion: TONGUE: PAPILLOMA, Dose [Carcinogen]: 20 PPM IN DRINKING WATER FOR 8 WK, Promoter: NONE USED) 4/24 (17%), 2/20 (10%), 41%, not significant; (Carcinogen: 7,12-DIMETHYLBENZ[A]ANTHRACENE, 57-97-6, Dose [Inhibitor]: 0: 5% IN DIET FOR DURATION OF STUDY BEGINNING 2 WK PRIOR TO CARCINOGEN DOSE (STUDY DURATION: 6 MO), Route [Inhibitor]: ORAL, Species: RAT, Strain/Sex: WISTAR/FEMALE, Target Tissue: Type of Lesion: MAMMARY GLAND: TUMOR, Dose [Carcinogen]: 10 MG IN PEANUT OIL INJECTED INTO SUBCUTANEOUS POUCH CREATED IN THE 5TH AND 6TH MAMMARY GLAND REGION, Promoter: NONE USED) 20/20 (100%), 5/20 (25%), 75%, p<0.001; (Carcinogen: 7,12-DIMETHYLBENZ[A]ANTHRACENE, 57-97-6, Dose [Inhibitor]: 0, 2% IN DIET FOR 22 WK BEGINNING 2 WK PRIOR TO CARCINOGEN DOSE (STUDY DURATION: 22 WK), Route [Inhibitor]: ORAL, Species: MOUSE, Strain/Sex: SENCAR/FEMALE, Target Tissue: Type of Lesion: LYMPHATIC SYSTEM:LYMPHOMA OR LEUKEMIA, Dose [Carcinogen]: 1 MG IN 0.1 ML CORN OIL 1/WK FOR 5 WK, Promoter: NONE USED) 45%, 21%, 53%, p<0.05; (Carcinogen: 7,12-DIMETHYLBENZ[A]ANTHRACENE, 57-97-6, Dose [Inhibitor]: 0, 2% IN DIET FOR 22 WK BEGINNING 2 WK PRIOR TO CARCINOGEN DOSE (STUDY DURATION: 22 WK), Route [Inhibitor]: ORAL, Species: MOUSE, Strain/Sex: SENCAR/FEMALE, Target Tissue: Type of Lesion: MAMMARY GLAND: TUMOR, Dose [Carcinogen]: 1 MG IN 0.1 ML CORN OIL 1/WK FOR 5 WK, Promoter: NONE USED) 68%, 78%, -15%, not significant; (Carcinogen: 7,12-DIMETHYLBENZ[A]ANTHRACENE, 57-97-6, Dose [Inhibitor]: 0, 2% IN DIET FOR 22 WK BEGINNING 2 WK PRIOR TO CARCINOGEN DOSE (STUDY DURATION: 22 WK), Route [Inhibitor]: ORAL, Species: MOUSE, Strain/Sex: SENCAR/FEMALE, Target Tissue: Type of Lesion: OVARY:TUMOR, Dose [Carcinogen]: 1 MG IN 0.1 ML CORN OIL 1/WK FOR 5 WK, Promoter: NONE USED) 20%, 8%, 60%, p<0.1; (Carcinogen: 7,12-DIMETHYLBENZ[A]ANTHRACENE, 57-97-6, Dose [Inhibitor]: 0, 3 UMOL IN ACETONE 1/WK FOR 10 WK APPLIED 5 MIN PRIOR TO EACH CARCINOGEN DOSE (STUDY DURATION: 26 WK), Route [Inhibitor]: DERMAL, Species: MOUSE, Strain/Sex: CD-1/FEMALE, Target Tissue: Type of Lesion: SKIN: TUMORS, Dose [Carcinogen]: 2 NMOL 1/WK FOR 10 WK, Promoter: 12-O-TETRADECANOYLPHORBOL-13-ACETATE, 16561-29-8) 100%, 98%, 2%, not calculated. In addition, the “tumour outcome (control, treated, inhibition, significance)” value runs as follows: (Carcinogen: 7,12-DIMETHYLBENZ[A]ANTHRACENE, 57-97-6, Dose [Inhibitor]: 0, 10 UMOL IN ACETONE 1/WK FOR 10 WK APPLIED 5 MIN PRIOR TO EACH CARCINOGEN DOSE (STUDY DURATION: 26 WK), Route [Inhibitor]: DERMAL, Species: MOUSE, Strain/Sex: CD-1/FEMALE, Target Tissue: Type of Lesion: SKIN: TUMORS, Dose [Carcinogen]: 2 NMOL 1/WK FOR 10 WK, Promoter: 12-O-TETRADECANOYLPHORBOL-13-ACETATE, 16561-29-8) 100%, 98%, 2%, not calculated; (Carcinogen: 7,12-DIMETHYLBENZ[A]ANTHRACENE, 57-97-6, Dose [Inhibitor]: 10 UMOL IN 200 µL ACETONE 2/WK FOR 19 WK BEGINNING 1 WK POST CARCINOGEN DOSE (STUDY DURATION: 20 WK), Route [Inhibitor]: DERMAL, Species: MOUSE, Strain/Sex: CD-1/FEMALE, Target Tissue: Type of Lesion: SKIN: PAPILLOMA, Dose [Carcinogen]: 200 NMOL IN 200 µL ACETONE ONCE, Promoter: 12-O-TETRADECANOYLPHORBOL-13-ACETATE, 16561-29-8) 68%, 0%, 100%, not calculated.
